These results are taken from PMC9016807, “Metabolic, Pharmacokinetic, and Activity Profile of the Liver Stage Antimalarial (RC-12)” (ACS Omega, 2022).

Where “and” joins values, the source holds several entries; their conditions need not be identical. Identical values can stand only once. Like-named read-outs stand apart in the source and are kept apart here.

The nature of data set [1]: Pharmacokinetics in rats after IV and PO administration. Type of data set: in vivo, male Sprague–Dawley rats. The procedure: Animal studies were conducted using established procedures in accordance with the Australian Code of Practice for the Care and Use of Animals for Scientific Purposes, and the study protocols were reviewed and approved by the Monash Institute of Pharmaceutical Sciences Animal Ethics Committee. The study was conducted in overnight-fasted male Sprague–Dawley rats weighing 266–292 g. Rats had access to water ad libitum throughout the pre- and postdose sampling period, and access to food was reinstated 4 h postdose. Compound 1 was administered intravenously as a 10 min constant rate infusion via an indwelling jugular vein cannula (1 mL per rat, n = 5 rats) and orally by gavage (10 mL/kg per rat, n = 2–3 rats), and samples of arterial blood and total urine were collected up to 24 h postdose. Arterial blood was collected directly into borosilicate vials (at 4 °C) containing heparin. Blood samples were centrifuged, and the supernatant plasma was removed and stored frozen (−80 °C) until analysis by LC-MS. Plasma samples and calibration standards (prepared in blank rat plasma) were processed by protein precipitation with a 2-fold volume of acetonitrile. LC-MS analysis was conducted using a Waters Micromass Quattro Premier triple-quadrupole mass spectrometer coupled to a Waters Acquity UPLC with a Phenomenex C18 Kinetex column (50 × 2.1 mm, 2.7 μm). Elution was achieved using a methanol–water gradient (containing 8.2 mM formic acid and 1.25 mM ammonium formate) with a flow rate of 0.6 mL/min, a gradient cycle time of 6 min, and an injection volume of 2 μL. MS detection was conducted using positive electrospray ionization with multiple reaction monitoring. Transitions (m/z), cone voltages (V), and CID voltages (V) were as follows: 1, 430.26 > 99.93, 40, 20; 2, 416.27 > 99.80, 30, 20; 3, 402.22 > 99.93, 35, 20; 4, 388.23 > 99.86, 35, 20; 5: 374.25 > 72.01, 35, 25; diazepam (285.25 > […], 40, 25) (used as an internal standard). The quantitation range in plasma was typically 1–10000 ng/mL, and the accuracy and precision were within ±10% and <10%, respectively, for each analyte. Urine samples were analyzed using either a 20- or 200-fold dilution with 50% acetonitrile and assayed against calibration standards prepared in the same solvent.

The next data set relates to P. vivax. Details: method as in doi:10.1016/0035-9203(74)90194-1. The settings on record: 7-day course at 10 mg/(kg day); cited from earlier work.
Setting [2] is: PO, 11 mg/kg, individual values n = 2.
Where [3] appears, read: male, Sprague-Dawley, rat, plasma, po, 27 mg/kg.

Regarding `CCN(CC)CCN(CCN(CC)CC)c1cc(OC)c(OC)cc1Br` [Compound 1, 4-(2-bromo-4,5-dimethoxyphenyl)-1,1,7,7-tetraethyldiethylenetriamine], the “dose excreted in urine as parent” value in data set [1] (IV, 3 mg/kg, individual values) is 9.2% and 10.7%. Also, the Cmax (as a rule, the highest concentration seen after dosing) was determined as 50 nM in data set [1] (setting [2]); 70 nM in data set [1] (male, Sprague-Dawley, rat, plasma, po, 11 mg/kg, individual values n = 2); 310 ± 30 nM in data set [1] (setting [3]). Further, the Tmax was 0.8 h in data set [1] (setting [2]); 1 h in data set [1] (male, Sprague-Dawley, rat, plasma, po, 11 mg/kg, PO, 11 mg/kg, individual values n = 2, read-out: Tmax); 1 h in data set [1] (male, Sprague-Dawley, rat, plasma, po, 27 mg/kg, PO, 27 mg/kg, read-out: Tmax); about 1 h in data set [1] (male, Sprague-Dawley, rat, plasma, po, oral administration, read-out: time of maximum plasma concentrations postdose). For the same compound, in data set [1] (setting [2]), the plasma half-life turned out to be 6.1 h. Further, the half-life (in general, the time needed for the level to fall by half in the phase considered) was 5 to 7 h in data set [1] (male, Sprague-Dawley, rat, plasma, intravenous and oral, after IV and PO administration, read-out: terminal half-life); 7 ± 1.3 h in data set [1] (male, Sprague-Dawley, rat, plasma, iv, 3 mg/kg, IV, 3 mg/kg, n = 5, read-out: plasma half-life (converted)); 4.9 h in data set [1] (male, Sprague-Dawley, rat, plasma, po, 11 mg/kg, PO, 11 mg/kg, individual values n = 2, read-out: plasma half-life (converted)); 7.4 ± 1.3 h in data set [1] (male, Sprague-Dawley, rat, plasma, po, 27 mg/kg, PO, 27 mg/kg, n = 3, read-out: plasma half-life (converted)). Further, in data set [1] (male, Sprague-Dawley, rat, plasma, iv, 3 mg/kg), the clearance is 147 ± 33 mL/min/kg. In addition, the Vd in data set [1] (male, Sprague-Dawley, rat, plasma, iv, 3 mg/kg, read-out: plasma volume of distribution) is 51 ± 10 L/kg. Further, the bioavailability (usually the share of a dose that reaches the circulation, judged against a reference dose that is usually intravenous) was about 16% in data set [1] (male, Sprague-Dawley, rat, plasma, po, 11 mg/kg) and about 27% in data set [1] (setting [3]). For the same compound, the blood plasma ratio in data set [1] (male, Sprague-Dawley, whole blood and plasma, 3 mg/kg, rat, IV column) amounted to 2.1. The “renal elimination as share of overall in vivo clearance” value in data set [1] (rat) was “approximately 10%”. Further, the “prevention of infections / inhibition of relapses of P. vivax” value in the data set with P. vivax is reported as “did not prevent infections or inhibit relapses”. For the same compound, the tolerability entry with P. vivax is on record as “well-tolerated”.
